# Assay results taken from ChEMBL document CHEMBL5154811, “Discovery of SPH5030, a Selective, Potent, and Irreversible Tyrosine Kinase Inhibitor for HER2-Amplified and HER2-Mutant Cancer Treatment” (J Med Chem, 2022).
# Test system: not listed separately
# Assay: Clearance in ICR mouse at 3 mg/kg, iv measured upto 1440 mins by LC/MS/MS analysis
# Format: ADME, organism-based
# Conditions: in vivo
row,clearance,SMILES
1,90 mL/min/kg,CCOc1cc2ncnc(Nc3ccc(Oc4cc5nncn5cn4)c(C)c3)c2cc1NC(=O)/C(F)=C\[C@@H]1CCCN1C
2,22 mL/min/kg,CCOc1cc2ncnc(Nc3ccc(Oc4cc5nncn5cn4)c(C)c3)c2cc1NC(=O)/C=C/[C@H]1CCCN1C

# Test system: not listed separately
# Assay: Half life in Sprague-Dawley rat at 3 mg/kg, iv measured upto 1440 mins by LC/MS/MS analysis
# Format: ADME, organism-based
# Conditions: in vivo
row,half-life,SMILES
1,6.62 h,CCOc1cc2ncnc(Nc3ccc(Oc4cc5nncn5cn4)c(C)c3)c2cc1NC(=O)/C(F)=C\[C@@H]1CCCN1C
2,2.09 h,CCOc1cc2ncnc(Nc3ccc(Oc4cc5nncn5cn4)c(C)c3)c2cc1NC(=O)/C=C/[C@H]1CCCN1C

# Test system: not listed separately
# Assay: Tmax in Sprague-Dawley rat at 10 mg/kg, po measured upto 1440 mins by LC/MS/MS analysis
# Format: ADME, organism-based
# Conditions: in vivo
row,Tmax,SMILES
1,2.67 h,CCOc1cc2ncnc(Nc3ccc(Oc4cc5nncn5cn4)c(C)c3)c2cc1NC(=O)/C(F)=C\[C@@H]1CCCN1C
2,4 h,CCOc1cc2ncnc(Nc3ccc(Oc4cc5nncn5cn4)c(C)c3)c2cc1NC(=O)/C=C/[C@H]1CCCN1C

# Test system: not listed separately
# Assay: Half life in ICR mouse at 3 mg/kg, iv measured upto 1440 mins by LC/MS/MS analysis
# Format: ADME, organism-based
# Conditions: in vivo
row,half-life,SMILES
1,1.16 h,CCOc1cc2ncnc(Nc3ccc(Oc4cc5nncn5cn4)c(C)c3)c2cc1NC(=O)/C(F)=C\[C@@H]1CCCN1C
2,4.38 h,CCOc1cc2ncnc(Nc3ccc(Oc4cc5nncn5cn4)c(C)c3)c2cc1NC(=O)/C=C/[C@H]1CCCN1C

# Test system: not listed separately
# Assay: Half life in Sprague-Dawley rat at 10 mg/kg, po measured upto 1440 mins by LC/MS/MS analysis
# Format: ADME, organism-based
# Conditions: in vivo
row,half-life,SMILES
1,4.14 h,CCOc1cc2ncnc(Nc3ccc(Oc4cc5nncn5cn4)c(C)c3)c2cc1NC(=O)/C(F)=C\[C@@H]1CCCN1C
2,4.32 h,CCOc1cc2ncnc(Nc3ccc(Oc4cc5nncn5cn4)c(C)c3)c2cc1NC(=O)/C=C/[C@H]1CCCN1C

# Test system: BT-474
# Assay: Antiproliferative activity against human BT-474 cells assessed as inhibition of cell growth incubated for 72 hrs by Celltiter-Glo assay
# Format: functional, cell-based
# Conditions: BT-474, 72 h
row,IC50,SMILES
1,1.75 nM,CCOc1cc2ncnc(Nc3ccc(Oc4cc5nncn5cn4)c(C)c3)c2cc1NC(=O)/C(F)=C\[C@@H]1CCCN1C
2,2.13 nM,CCOc1cc2ncnc(Nc3ccc(Oc4cc5nncn5cn4)c(C)c3)c2cc1NC(=O)/C=C/[C@H]1CCCN1C

# Test system: NCI-N87
# Assay: Antiproliferative activity against human NCI-N87 cells assessed as inhibition of cell growth incubated for 72 hrs by Celltiter-Glo assay
# Format: functional, cell-based
# Conditions: NCI-N87, 72 h
row,SMILES,IC50
1,CCOc1cc2ncnc(Nc3ccc(Oc4cc5nncn5cn4)c(C)c3)c2cc1NC(=O)/C(F)=C\[C@@H]1CCCN1C,0.56 nM
2,CCOc1cc2ncnc(Nc3ccc(Oc4cc5nncn5cn4)c(C)c3)c2cc1NC(=O)/C=C/[C@H]1CCCN1C,1.12 nM

# Test system: not listed separately
# Assay: Cmax in ICR mouse at 10 mg/kg, po measured upto 1440 mins by LC/MS/MS analysis
# Format: ADME, organism-based
# Design: dose 10 mg/kg, time < 1440 min, route po
# Conditions: in vivo
row,Cmax,SMILES
1,290 ng/mL,CCOc1cc2ncnc(Nc3ccc(Oc4cc5nncn5cn4)c(C)c3)c2cc1NC(=O)/C(F)=C\[C@@H]1CCCN1C
2,400 ng/mL,CCOc1cc2ncnc(Nc3ccc(Oc4cc5nncn5cn4)c(C)c3)c2cc1NC(=O)/C=C/[C@H]1CCCN1C

# Test system: not listed separately
# Assay: Half life in ICR mouse at 10 mg/kg, po measured upto 1440 mins by LC/MS/MS analysis
# Format: ADME, organism-based
# Conditions: in vivo
row,half-life,SMILES
1,0.87 h,CCOc1cc2ncnc(Nc3ccc(Oc4cc5nncn5cn4)c(C)c3)c2cc1NC(=O)/C(F)=C\[C@@H]1CCCN1C
2,3.07 h,CCOc1cc2ncnc(Nc3ccc(Oc4cc5nncn5cn4)c(C)c3)c2cc1NC(=O)/C=C/[C@H]1CCCN1C

# Molecular target: Receptor tyrosine-protein kinase erbB-2 (Homo sapiens, UniProt P04626)
# Sequence (P04626 whole entry): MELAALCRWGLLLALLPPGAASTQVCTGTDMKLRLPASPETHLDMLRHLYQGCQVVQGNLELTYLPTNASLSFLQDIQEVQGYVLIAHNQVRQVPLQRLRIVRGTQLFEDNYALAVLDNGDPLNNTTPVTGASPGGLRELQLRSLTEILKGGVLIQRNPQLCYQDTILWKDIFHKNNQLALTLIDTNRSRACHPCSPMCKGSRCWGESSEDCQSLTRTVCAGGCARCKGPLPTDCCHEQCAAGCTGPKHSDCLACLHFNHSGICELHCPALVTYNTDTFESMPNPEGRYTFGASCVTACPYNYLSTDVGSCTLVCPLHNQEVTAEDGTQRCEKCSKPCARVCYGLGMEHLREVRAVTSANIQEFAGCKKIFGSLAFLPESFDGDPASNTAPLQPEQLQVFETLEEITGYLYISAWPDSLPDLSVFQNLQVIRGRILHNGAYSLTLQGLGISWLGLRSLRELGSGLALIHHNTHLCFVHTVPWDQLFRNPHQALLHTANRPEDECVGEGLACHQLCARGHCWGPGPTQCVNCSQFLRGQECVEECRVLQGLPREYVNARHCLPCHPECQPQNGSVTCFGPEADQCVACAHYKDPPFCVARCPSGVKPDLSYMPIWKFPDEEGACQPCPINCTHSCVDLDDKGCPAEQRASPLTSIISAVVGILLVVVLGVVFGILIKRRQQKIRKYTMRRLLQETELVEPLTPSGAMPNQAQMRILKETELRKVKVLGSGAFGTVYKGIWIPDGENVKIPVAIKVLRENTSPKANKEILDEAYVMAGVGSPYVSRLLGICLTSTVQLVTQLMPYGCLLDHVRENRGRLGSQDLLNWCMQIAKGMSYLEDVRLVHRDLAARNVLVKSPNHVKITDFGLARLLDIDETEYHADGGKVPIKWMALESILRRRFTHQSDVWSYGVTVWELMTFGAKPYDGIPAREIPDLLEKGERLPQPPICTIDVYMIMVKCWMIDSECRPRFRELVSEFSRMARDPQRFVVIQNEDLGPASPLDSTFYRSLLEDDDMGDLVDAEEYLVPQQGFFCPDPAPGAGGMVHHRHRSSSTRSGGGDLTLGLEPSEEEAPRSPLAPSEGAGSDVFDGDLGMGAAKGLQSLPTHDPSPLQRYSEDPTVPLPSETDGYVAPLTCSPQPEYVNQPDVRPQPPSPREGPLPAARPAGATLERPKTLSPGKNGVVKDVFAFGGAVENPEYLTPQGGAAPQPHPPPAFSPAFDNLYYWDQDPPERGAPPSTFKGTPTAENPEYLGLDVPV
# Assay: Inhibition of wild type human GST-tagged HER2 (676 to end residues) expressed in baculovirus infected Sf9 cells incubated for 30 mins in presence of ATP by HTRF analysis
# Conditions: not given
row,IC50,SMILES
1,3.68 nM,CCOc1cc2ncnc(Nc3ccc(Oc4cc5nncn5cn4)c(C)c3)c2cc1NC(=O)/C(F)=C\[C@@H]1CCCN1C
2,1.67 nM,CCOc1cc2ncnc(Nc3ccc(Oc4cc5nncn5cn4)c(C)c3)c2cc1NC(=O)/C=C/[C@H]1CCCN1C

# Test system: not listed separately
# Assay: Volume of distribution at steady state in Sprague-Dawley rat at 3 mg/kg, iv measured upto 1440 mins by LC/MS/MS analysis
# Format: ADME, organism-based
# Conditions: in vivo, read-out: Vdss
row,Vd,SMILES
1,23.6 L/kg,CCOc1cc2ncnc(Nc3ccc(Oc4cc5nncn5cn4)c(C)c3)c2cc1NC(=O)/C(F)=C\[C@@H]1CCCN1C
2,10.6 L/kg,CCOc1cc2ncnc(Nc3ccc(Oc4cc5nncn5cn4)c(C)c3)c2cc1NC(=O)/C=C/[C@H]1CCCN1C

# Test system: not listed separately
# Assay: Oral bioavailability in Sprague-Dawley rat at 10 mg/kg measured upto 1440 mins by LC/MS/MS analysis
# Format: ADME, organism-based
# Conditions: in vivo
row,bioavailability,SMILES
1,13.7%,CCOc1cc2ncnc(Nc3ccc(Oc4cc5nncn5cn4)c(C)c3)c2cc1NC(=O)/C(F)=C\[C@@H]1CCCN1C
2,47.5%,CCOc1cc2ncnc(Nc3ccc(Oc4cc5nncn5cn4)c(C)c3)c2cc1NC(=O)/C=C/[C@H]1CCCN1C

# Test system: not listed separately
# Assay: Volume of distribution at steady state in ICR mouse at 3 mg/kg, iv measured upto 1440 mins by LC/MS/MS analysis
# Format: ADME, organism-based
# Conditions: in vivo, read-out: Vdss
row,Vd,SMILES
1,4.49 L/kg,CCOc1cc2ncnc(Nc3ccc(Oc4cc5nncn5cn4)c(C)c3)c2cc1NC(=O)/C(F)=C\[C@@H]1CCCN1C
2,2.79 L/kg,CCOc1cc2ncnc(Nc3ccc(Oc4cc5nncn5cn4)c(C)c3)c2cc1NC(=O)/C=C/[C@H]1CCCN1C

# Test system: not listed separately
# Assay: Oral bioavailability in ICR mouse at 10 mg/kg measured upto 1440 mins by LC/MS/MS analysis
# Format: ADME, organism-based
# Conditions: in vivo
row,bioavailability,SMILES
1,34.4%,CCOc1cc2ncnc(Nc3ccc(Oc4cc5nncn5cn4)c(C)c3)c2cc1NC(=O)/C(F)=C\[C@@H]1CCCN1C
2,22.6%,CCOc1cc2ncnc(Nc3ccc(Oc4cc5nncn5cn4)c(C)c3)c2cc1NC(=O)/C=C/[C@H]1CCCN1C

# Test system: not listed separately
# Assay: Metabolic stability in human liver microsomes assessed as intrinsic clearance at 1 uM preincubated for 5 mins followed by NADPH addition by LC-MS/MS analysis
# Format: ADME, Microsome
# Conditions: read-out: CLH
row,microsomal CLint at 1 µM,SMILES
1,1.81 µL/min/mg,CCOc1cc2ncnc(Nc3ccc(Oc4cc5nncn5cn4)c(C)c3)c2cc1NC(=O)/C=C/[C@H]1CCCN1C

# Test system: not listed separately
# Assay: AUC (0 to t) in Sprague-Dawley rat at 10 mg/kg, po measured upto 1440 mins by LC/MS/MS analysis
# Format: ADME, organism-based
# Design: dose 10 mg/kg, time < 1440 min, route po
# Conditions: in vivo
row,AUC(0-t) at 24 h,SMILES
1,170 ng·h/mL,CCOc1cc2ncnc(Nc3ccc(Oc4cc5nncn5cn4)c(C)c3)c2cc1NC(=O)/C(F)=C\[C@@H]1CCCN1C
2,2170 ng·h/mL,CCOc1cc2ncnc(Nc3ccc(Oc4cc5nncn5cn4)c(C)c3)c2cc1NC(=O)/C=C/[C@H]1CCCN1C

# Molecular target: Epidermal growth factor receptor (Homo sapiens, UniProt P00533)
# Sequence (P00533 whole entry, the tested form may be a part): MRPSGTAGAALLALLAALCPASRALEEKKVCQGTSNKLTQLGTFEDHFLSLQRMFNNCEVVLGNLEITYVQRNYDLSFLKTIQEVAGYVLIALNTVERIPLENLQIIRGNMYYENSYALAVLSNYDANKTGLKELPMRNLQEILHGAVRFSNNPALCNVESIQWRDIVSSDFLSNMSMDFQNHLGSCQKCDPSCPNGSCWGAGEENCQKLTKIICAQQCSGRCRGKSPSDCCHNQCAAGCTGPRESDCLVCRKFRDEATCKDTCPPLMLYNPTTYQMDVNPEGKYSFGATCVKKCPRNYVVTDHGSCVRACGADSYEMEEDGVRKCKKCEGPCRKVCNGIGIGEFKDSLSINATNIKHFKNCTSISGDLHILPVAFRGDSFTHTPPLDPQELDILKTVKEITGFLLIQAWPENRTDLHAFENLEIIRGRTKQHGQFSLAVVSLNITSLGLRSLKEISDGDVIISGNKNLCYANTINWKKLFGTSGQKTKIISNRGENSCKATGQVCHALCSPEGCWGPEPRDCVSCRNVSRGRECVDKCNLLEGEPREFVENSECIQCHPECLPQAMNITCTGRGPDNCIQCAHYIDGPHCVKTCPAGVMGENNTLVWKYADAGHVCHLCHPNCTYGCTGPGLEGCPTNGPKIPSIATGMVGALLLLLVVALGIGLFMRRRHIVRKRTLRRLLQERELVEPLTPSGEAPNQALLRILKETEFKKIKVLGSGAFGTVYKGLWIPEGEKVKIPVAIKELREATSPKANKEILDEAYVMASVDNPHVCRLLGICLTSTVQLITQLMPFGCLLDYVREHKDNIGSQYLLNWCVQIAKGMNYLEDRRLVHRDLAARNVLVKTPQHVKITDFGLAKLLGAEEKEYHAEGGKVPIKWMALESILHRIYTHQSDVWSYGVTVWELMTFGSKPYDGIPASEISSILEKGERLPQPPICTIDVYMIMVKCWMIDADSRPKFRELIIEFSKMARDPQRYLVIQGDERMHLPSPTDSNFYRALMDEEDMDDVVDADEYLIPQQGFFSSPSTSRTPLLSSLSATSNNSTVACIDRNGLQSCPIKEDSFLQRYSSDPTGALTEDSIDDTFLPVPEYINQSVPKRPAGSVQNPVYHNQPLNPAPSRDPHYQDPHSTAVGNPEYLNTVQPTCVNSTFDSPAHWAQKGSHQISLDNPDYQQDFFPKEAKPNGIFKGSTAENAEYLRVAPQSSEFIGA
# Assay: Inhibition of wild type human N-terminal GST tagged EGFR (669 to 1210 residues) expressed in Sf21 insect cells incubated for 30 mins in presence of ATP by HTRF analysis
# Conditions: not given
row,IC50,SMILES
1,25.9 nM,CCOc1cc2ncnc(Nc3ccc(Oc4cc5nncn5cn4)c(C)c3)c2cc1NC(=O)/C(F)=C\[C@@H]1CCCN1C
2,1.36 nM,CCOc1cc2ncnc(Nc3ccc(Oc4cc5nncn5cn4)c(C)c3)c2cc1NC(=O)/C=C/[C@H]1CCCN1C

# Test system: not listed separately
# Assay: Cmax in Sprague-Dawley rat at 10 mg/kg, po measured upto 1440 mins by LC/MS/MS analysis
# Format: ADME, organism-based
# Design: time < 1440 min, dose 10 mg/kg, route po
# Conditions: in vivo
row,Cmax,SMILES
1,30 ng/mL,CCOc1cc2ncnc(Nc3ccc(Oc4cc5nncn5cn4)c(C)c3)c2cc1NC(=O)/C(F)=C\[C@@H]1CCCN1C
2,280 ng/mL,CCOc1cc2ncnc(Nc3ccc(Oc4cc5nncn5cn4)c(C)c3)c2cc1NC(=O)/C=C/[C@H]1CCCN1C

# Test system: not listed separately
# Assay: Tmax in ICR mouse at 10 mg/kg, po measured upto 1440 mins by LC/MS/MS analysis
# Format: ADME, organism-based
# Conditions: in vivo
row,Tmax,SMILES
1,0.42 h,CCOc1cc2ncnc(Nc3ccc(Oc4cc5nncn5cn4)c(C)c3)c2cc1NC(=O)/C(F)=C\[C@@H]1CCCN1C
2,1.67 h,CCOc1cc2ncnc(Nc3ccc(Oc4cc5nncn5cn4)c(C)c3)c2cc1NC(=O)/C=C/[C@H]1CCCN1C

# Test system: not listed separately
# Assay: Metabolic stability in human liver microsomes assessed as half life at 1 uM preincubated for 5 mins followed by NADPH addition by LC-MS/MS analysis
# Format: ADME, Microsome
# Conditions: not given
row,half-life at 1 µM,SMILES
1,12.9 h,CCOc1cc2ncnc(Nc3ccc(Oc4cc5nncn5cn4)c(C)c3)c2cc1NC(=O)/C=C/[C@H]1CCCN1C

# Test system: not listed separately
# Assay: Clearance in Sprague-Dawley rat at 3 mg/kg, iv measured upto 1440 mins by LC/MS/MS analysis
# Format: ADME, organism-based
# Conditions: in vivo
row,clearance,SMILES
1,80.8 mL/min/kg,CCOc1cc2ncnc(Nc3ccc(Oc4cc5nncn5cn4)c(C)c3)c2cc1NC(=O)/C(F)=C\[C@@H]1CCCN1C
2,55.5 mL/min/kg,CCOc1cc2ncnc(Nc3ccc(Oc4cc5nncn5cn4)c(C)c3)c2cc1NC(=O)/C=C/[C@H]1CCCN1C

# Test system: not listed separately
# Assay: AUC (0 to t) in ICR mouse at 10 mg/kg, po measured upto 1440 mins by LC/MS/MS analysis
# Format: ADME, organism-based
# Design: time < 1440 min, dose 10 mg/kg, route po
# Conditions: in vivo
row,AUC(0-t) at 24 h,SMILES
1,630 ng·h/mL,CCOc1cc2ncnc(Nc3ccc(Oc4cc5nncn5cn4)c(C)c3)c2cc1NC(=O)/C(F)=C\[C@@H]1CCCN1C
2,1700 ng·h/mL,CCOc1cc2ncnc(Nc3ccc(Oc4cc5nncn5cn4)c(C)c3)c2cc1NC(=O)/C=C/[C@H]1CCCN1C
